Experiments:
dCK-C3S-S74E [1] = assay: Enzymatic assay (PK/LDH coupled), dC phosphorylation by dCK in the presence of UTP; assay type: biochemical, human; details: for ENZYMATIC ASSAY (Activation/Inhibition): presence of UTP
Method in brief: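 Activation versus inhibition was judged with 1 mM UTP, 200 µM dC and 2 μM dCK-C3S-S74E, using pyruvate kinase/lactate dehydrogenase coupling that tracks NADH fluorescence decrease at 460 nm. Buffer was HEPES pH 7.5 with MgCl2, KCl and DTT. Rates came from linear slopes, expressed relative to compound-free control.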

CCRF-CEM cell line = assay: dCK cellular assay: CCRF-CEM proliferation in the presence of dT and dC; assay type: cell-based, human; details: for activity at 0.078 µM: 78 nM; for activity at 0.156 µM: 156 nM; for activity at 0.312 µM: 312 nM; for activity at 0.625 µM: 625 nM; for activity at 1.25 µM: 1250 nM; for activity at 2.5 µM: 2500 nM; for activity at 5 µM: 5000 nM; for activity at 10 µM: 10000 nM; for activity at 20 µM: 20000 nM; for activity at 40 µM: 40000 nM; for IC50: 72 h, read-out: IC50 cell proliferation (dCK cellular assay)
Method in brief: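 Two conditions in T-ALL CCRF-CEM cells: compound only, and compound with thymidine blocking de novo synthesis and deoxycytidine rescuing via dCK. Metabolic dye fluorescence (560/590 nm) gives % proliferation vs DMSO; IC50s, mean ± SD of at least three triplicate runs.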

dCK-C3S-S74E [2] = assay: Thermal shift assay (TSA); details: for ΔTm, dCK thermal stabilization (TSA): 5 μM protein, 50 μM compound; for Thermal Shift Assay Mean (ΔTm (º)): Figure 2b; for THERMAL SHIFT ASSAY +Tm (°): mean ± SD
[3] = Homo sapiens, CCRF-CEM, dT 200 µM + dC 1 µM, read-out: Cell proliferation of the CCRF-CEM cell line Mean (% prolif)
[4] = Homo sapiens, CCRF-CEM, dT 200 µM + dC 1 µM

Chain of dCK-C3S-S74E (P27707 whole entry S74E, form open): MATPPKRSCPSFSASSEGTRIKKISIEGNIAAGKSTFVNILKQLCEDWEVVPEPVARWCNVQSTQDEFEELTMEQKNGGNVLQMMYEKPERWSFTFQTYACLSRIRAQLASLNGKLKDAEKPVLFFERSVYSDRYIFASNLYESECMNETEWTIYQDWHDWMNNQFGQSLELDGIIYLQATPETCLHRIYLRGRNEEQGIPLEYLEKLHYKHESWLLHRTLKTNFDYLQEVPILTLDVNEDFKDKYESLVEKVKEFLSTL

| ENZYMATIC ASSAY (Activation/Inhibition) (dCK-C3S-S74E [1]) | IC50 (CCRF-CEM cell line; [4]) [µM] | ΔTm, dCK thermal stabilization (TSA) (dCK-C3S-S74E [2]) [°C] | Thermal Shift Assay Mean (ΔTm (º)) (dCK-C3S-S74E [2]) | THERMAL SHIFT ASSAY +Tm (°) (dCK-C3S-S74E [2]) | effect on dCK enzymatic activity, activation versus inhibition (dCK-C3S-S74E [1]; UTP 1 mM, dC 200 µM) | fold improvement of cellular IC50 (CCRF-CEM cell line; versus the preceding compound of the optimization) [fold] | Structure (SMILES) | activity at 0.078 µM (CCRF-CEM cell line; [3]) [%] | activity at 0.156 µM (CCRF-CEM cell line; [3]) [%] | activity at 0.312 µM (CCRF-CEM cell line; [3]) [%] | activity at 0.625 µM (CCRF-CEM cell line; [3]) [%] | activity at 1.25 µM (CCRF-CEM cell line; [3]) [%] | activity at 2.5 µM (CCRF-CEM cell line; [3]) [%] | activity at 5 µM (CCRF-CEM cell line; [3]) [%] | activity at 10 µM (CCRF-CEM cell line; [3]) [%] | activity at 20 µM (CCRF-CEM cell line; [3]) [%] | activity at 40 µM (CCRF-CEM cell line; [3]) [%] | activity at 0.0195 µM (CCRF-CEM cell line; Homo sapiens, CCRF-CEM, 19.5 nM, dT 200 µM + dC 1 µM, read-out: Cell proliferation of the CCRF-CEM cell line Mean (% prolif)) [%] | activity at 0.039 µM (CCRF-CEM cell line; Homo sapiens, CCRF-CEM, 39 nM, dT 200 µM + dC 1 µM, read-out: Cell proliferation of the CCRF-CEM cell line Mean (% prolif)) [%] |
| --- | --- | --- | --- | --- | --- | --- | --- | --- | --- | --- | --- | --- | --- | --- | --- | --- | --- | --- | --- |
| A/I | 2.1 | 16.7 | 16.7 º | 16.7 ± 0.3 | – | – | Cc1ccc(-c2ccc(CN3CCN(C)CC3)cc2)cc1Nc1nc(-c2nccc(N)n2)cs1 [OR0274] | 103 | 94.8 | 95.1 | 90.1 | 75 | 55.5 | 31 | 7.8 | -0.0667 | 0.167 | – | – |
| A/I | 1.68 | 17.8 | 17.8 º | 17.9 ± 0.3 | – | – | Cc1ccc(-c2ccc(CCN3CCN(C)CC3)cc2)cc1Nc1nc(-c2nccc(N)n2)cs1 [OR0325] | 100 | 92.4 | 88.7 | 81.5 | 61.9 | 40.5 | 11.6 | 0.0667 | -0.0333 | 0.3 | – | – |
| I | 0.505 | 18.4 | 18.4 º | 18.4 ± 0.2 | total loss of dCK enzymatic activation | 3 | CCCN(c1nc(-c2nccc(N)n2)cs1)c1cc(-c2ccc(CCN3CCN(C)CC3)cc2)ccc1C [OR0345] | 82 | 72.4 | 63.4 | 51.4 | 37.6 | 19.3 | 2.4 | 0.333 | – | – | 90.6 | 85.8 |

Source: article PMC10227015, “From a drug repositioning to a structure-based drug design approach to tackle acute lymphoblastic leukemia” (Nature Communications, 2023)
